Data: US10681909B2, “Herbicidal triazoles” (FMC Corporation, priority 2014, dated 2020)

Columns and labels:
chickweed = test: Test D preemergence; type: in vivo, Stellaria media; details: scale 0 to 100
Excerpt: (§1) Seeds of plant species selected from bluegrass (annual bluegrass, Poa annua), blackgrass (Alopecurus myosuroides), canarygrass (Phalaris minor), chickweed (common chickweed, Stellaria media), galium (catchweed bedstraw, Galium aparine), bromegrass, down (downy bromegrass, Bromus tectorum), Russian thistle (Salsola kali), field poppy (Papaver rhoeas), field violet (Viola arvensis), foxtail, green (green foxtail, Setaria viridis), deadnettle (henbit deadnettle, Lamium amplexicaule), ryegrass, Ital. (Italian ryegrass, Lolium multiflorum), kochia (Kochia scoparia), lambsquarters (Chenopodium album), oilseed rape (Brassica napus), pigweed (Amaranthus retroflexus), chamomile (scentless chamomile, Matricaria inodora), speedwell (bird's-eye speedwell, Veronica persica), barley, spring (spring barley, Hordeum vulgare), wheat, spring (spring wheat, Triticum aestivum), buckwheat, wild (wild buckwheat, Polygonum convolvulus), wild mustard (Sinapis arvensis), oat, wild (wild oat, Avena fatua), radish, wild (wild radish, Raphanus raphanistrum), […]), barley, winter (winter barley, Hordeum vulgare), and wheat, winter (winter wheat, Triticum aestivum) were planted into a silt loam soil and treated preemergence with test chemicals formulated in a non-phytotoxic solvent mixture which included a surfactant. At the same time, these species were planted in pots containing Sunshine Redi-Earth® planting medium comprising spaghnum peat moss, vermiculite, starter nutrients and dolomitic limestone and treated with postemergence applications of the test chemicals formulated in the same manner. Plants ranged in height from 2 to 18 cm (1- to 4-leaf stage). Treated plants and controls were maintained in a controlled growth environment for 14 to 21 d after which time all species were compared to controls and visually evaluated. […] A dash (-) response means no test result.

kochia = test: Test D preemergence; type: in vivo, Kochia scoparia; details: scale 0 to 100
Excerpt: as §1

lambsquarters = test: Test D postemergence; type: in vivo, Chenopodium album; details: scale 0 to 100
Excerpt: as §1

johnsongrass = test: Test C preemergence; type: in vivo, Sorghum halepense; details: for Plant response rating (scale of 0 to 100 where 0 is no effect and 100 is complete control): Johnsongrass, preemergence; for Johnsongrass plant response rating (0 to 100): Preemergence, visual rating after 13 to 15 d
Excerpt: (§2) Seeds of plant species selected from blackgrass (Alopecurus myosuroides), ryegrass, Italian (Italian ryegrass, Lolium multiflorum), wheat (winter wheat, Triticum aestivum), galium (catchweed bedstraw, Galium aparine), corn (Zea mays), crabgrass, large (large crabgrass, Digitaria sanguinalis), foxtail, giant, (giant foxtail, Setaria faberii), johnsongrass (Sorghum halepense), lambsquarters (Chenopodium album), morningglory (Ipomoea coccinea), nutsedge, yellow (yellow nutsedge, Cyperus esculentus), pigweed (Amaranthus retroflexus), ragweed (common ragweed, Ambrosia elatior), soybean (Glycine max), barnyardgrass (Echinochloa crus-galli), oilseed rape (Brassica napus), waterhemp (common waterhemp, Amaranthus rudis), and velvetleaf (Abutilon theophrasti) were planted into a blend of loam soil and sand and treated preemergence with test chemicals formulated in a non-phytotoxic solvent mixture which included a surfactant. At the same time, plants selected from these crop and weed species and also chickweed (common chickweed, Stellaria media), oat, wild (wild oat, Avena fatua), and kochia (Kochia scoparia), were planted in pots containing Sunshine Redi-Earth® planting medium comprising spaghnum peat moss, vermiculite, starter nutrients and dolomitic limestone and treated with postemergence applications of test chemicals formulated in the same manner. Plants ranged in height from 2 to 18 cm (1- to 4-leaf stage) for postemergence treatments. […] A dash (-) response means no test result.

bluegrass = test: Test D postemergence; type: in vivo, Poa annua; details: scale 0 to 100
Excerpt: as §1

radish, wild = test: Test D postemergence; type: in vivo, Raphanus raphanistrum; details: scale 0 to 100
Excerpt: as §1

blackgrass = test: Test D preemergence; type: in vivo, Alopecurus myosuroides; details: scale 0 to 100
Excerpt: as §1

pigweed [1] = test: Test D postemergence; type: in vivo, Amaranthus retroflexus; details: scale 0 to 100
Excerpt: as §1

oat, wild = test: Test D postemergence; type: in vivo, Avena fatua; details: scale 0 to 100
Excerpt: as §1

ragweed = test: Test C preemergence; type: in vivo, Ambrosia elatior; details: for Ragweed plant response rating (0 to 100): Preemergence, visual rating after 13 to 15 d; for Plant response rating (scale of 0 to 100 where 0 is no effect and 100 is complete control): Ragweed, preemergence
Excerpt: as §2

pigweed [2] = test: Test D preemergence; type: in vivo, Amaranthus retroflexus; details: scale 0 to 100
Excerpt: as §1

galium = test: Test A postemergence; type: in vivo, Galium aparine; details: 0 to 100 scale (0 no effect, 100 complete control), approx. 10 d
Excerpt: (§3) Seeds of plant species selected from barnyardgrass (Echinochloa crus-galli), crabgrass, large (large crabgrass, Digitaria sanguinalis), kochia (Kochia scoparia), ragweed (common ragweed, Ambrosia elatior), foxtail, giant (giant foxtail, Setaria faberii), morningglory (Ipomoea spp.), pigweed (Amaranthus retroflexus), velvetleaf (Abutilon theophrasti), ryegrass, Italian (Italian ryegrass, Lolium multiflorum), wheat (Triticum aestivum), and corn (Zea mays) were planted into a blend of loam soil and sand and treated preemergence with a directed soil spray using test chemicals formulated in a non-phytotoxic solvent mixture which included a surfactant.
(§4) At the same time, plants selected from these crop and weed species and also blackgrass (Alopecurus myosuroides), and galium (catchweed bedstraw, Galium aparine), were planted in pots containing the same blend of loam soil and sand and treated with postemergence applications of test chemicals formulated in the same manner. Plants ranged in height from 2 to 10 cm and were in the one- to two-leaf stage for the postemergence treatment. Treated plants and untreated controls were maintained in a greenhouse for approximately 10 d, after which time all treated plants were compared to untreated controls and visually evaluated for injury. Plant response ratings, summarized in Table A, are based on a 0 to 100 scale where 0 is no effect and 100 is complete control. A dash (-) response means no test result.

ryegrass, Italian = test: Test A preemergence; type: in vivo, Lolium multiflorum; details: 0 to 100 scale (0 no effect, 100 complete control)
Excerpt: as §3, §4

## CCc1nc(-c2ccc(C(F)(F)F)cc2)nn1Cc1ccnc(C(F)(F)F)c1 [Compound 1, 4-[[5-ethyl-3-[4-(trifluoromethyl)phenyl]-1H-1,2,4-triazol-1-yl]methyl]-2-(trifluoromethyl)pyridine]
chickweed; 31 g ai/ha
  Plant response rating: Chickweed: 90
chickweed; 62 g ai/ha
  Plant response rating: Chickweed: 100
chickweed; 125 g ai/ha
  Plant response rating: Chickweed: 100
chickweed; 250 g ai/ha
  Plant response rating: Chickweed: 100
kochia; 62 g ai/ha
  Plant response rating: Kochia: 70
kochia; 125 g ai/ha
  Plant response rating: Kochia: 100
kochia; 250 g ai/ha
  Plant response rating: Kochia: 100
lambsquarters; 31 g ai/ha
  Plant response rating: Lambsquarters: 75
lambsquarters; 62 g ai/ha
  Plant response rating: Lambsquarters: 80
lambsquarters; 125 g ai/ha
  Plant response rating: Lambsquarters: 85
lambsquarters; 250 g ai/ha
  Plant response rating: Lambsquarters: 90
johnsongrass; 125 g ai/ha
  Plant response rating (scale of 0 to 100 where 0 is no effect and 100 is complete control): 55
johnsongrass; 250 g ai/ha
  Plant response rating (scale of 0 to 100 where 0 is no effect and 100 is complete control): 80
johnsongrass; 31 g ai/ha
  Johnsongrass plant response rating (0 to 100): 25
johnsongrass; 62 g ai/ha
  Johnsongrass plant response rating (0 to 100): 35
bluegrass; 31 g ai/ha
  Plant response rating: Bluegrass: 10
bluegrass; 62 g ai/ha
  Plant response rating: Bluegrass: 20
bluegrass; 125 g ai/ha
  Plant response rating: Bluegrass: 35
bluegrass; 250 g ai/ha
  Plant response rating: Bluegrass: 55
radish, wild; 31 g ai/ha
  Plant response rating: Radish, Wild: 75
radish, wild; 62 g ai/ha
  Plant response rating: Radish, Wild: 100
radish, wild; 125 g ai/ha
  Plant response rating: Radish, Wild: 95
radish, wild; 250 g ai/ha
  Plant response rating: Radish, Wild: 95
blackgrass; 31 g ai/ha
  Plant response rating: Blackgrass: 15
blackgrass; 62 g ai/ha
  Plant response rating: Blackgrass: 35
blackgrass; 125 g ai/ha
  Plant response rating: Blackgrass: 35
blackgrass; 250 g ai/ha
  Plant response rating: Blackgrass: 65
Pigweed [1]; 31 g ai/ha
  Plant response rating: Pigweed: 80
Pigweed [1]; 62 g ai/ha
  Plant response rating: Pigweed: 85
Pigweed [1]; 125 g ai/ha
  Plant response rating: Pigweed: 85
Pigweed [1]; 250 g ai/ha
  Plant response rating: Pigweed: 85
oat, wild; 31 g ai/ha
  Plant response rating: Oat, Wild: 25
oat, wild; 62 g ai/ha
  Plant response rating: Oat, Wild: 30
oat, wild; 125 g ai/ha
  Plant response rating: Oat, Wild: 35
oat, wild; 250 g ai/ha
  Plant response rating: Oat, Wild: 45
ragweed; 31 g ai/ha
  Ragweed plant response rating (0 to 100): 35
ragweed; 62 g ai/ha
  Ragweed plant response rating (0 to 100): 50
ragweed; 125 g ai/ha
  Plant response rating (scale of 0 to 100 where 0 is no effect and 100 is complete control): 60
ragweed; 250 g ai/ha
  Plant response rating (scale of 0 to 100 where 0 is no effect and 100 is complete control): 70
Pigweed [2]; 62 g ai/ha
  Plant response rating: Pigweed: 100
Pigweed [2]; 125 g ai/ha
  Plant response rating: Pigweed: 100
Pigweed [2]; 250 g ai/ha
  Plant response rating: Pigweed: 100

## CCCc1nc(-c2ccc(F)cc2)nn1Cc1ccnc(C(F)(F)F)c1 [Compound 6, 4-[[3-(4-fluorophenyl)-5-propyl-1H-1,2,4-triazol-1-yl]methyl]-2-(trifluoromethyl)pyridine]
johnsongrass; 125 g ai/ha
  Plant response rating (scale of 0 to 100 where 0 is no effect and 100 is complete control): 85
johnsongrass; 250 g ai/ha
  Plant response rating (scale of 0 to 100 where 0 is no effect and 100 is complete control): 100
johnsongrass; 31 g ai/ha
  Johnsongrass plant response rating (0 to 100): 60
johnsongrass; 62 g ai/ha
  Johnsongrass plant response rating (0 to 100): 75
ragweed; 31 g ai/ha
  Ragweed plant response rating (0 to 100): 20
ragweed; 62 g ai/ha
  Ragweed plant response rating (0 to 100): 20
ragweed; 125 g ai/ha
  Plant response rating (scale of 0 to 100 where 0 is no effect and 100 is complete control): 55
ragweed; 250 g ai/ha
  Plant response rating (scale of 0 to 100 where 0 is no effect and 100 is complete control): 80

## COc1nc(-c2ccc(F)cc2)nn1Cc1ccnc(C(F)(F)F)c1 [Compound 9, 4-[[3-(4-fluorophenyl)-5-methoxy-1H-1,2,4-triazol-1-yl]methyl]-2-(trifluoromethyl)pyridine]
johnsongrass; 125 g ai/ha
  Plant response rating (scale of 0 to 100 where 0 is no effect and 100 is complete control): 65
johnsongrass; 250 g ai/ha
  Plant response rating (scale of 0 to 100 where 0 is no effect and 100 is complete control): 80
johnsongrass; 31 g ai/ha
  Johnsongrass plant response rating (0 to 100): 5
johnsongrass; 62 g ai/ha
  Johnsongrass plant response rating (0 to 100): 20
ragweed; 31 g ai/ha
  Ragweed plant response rating (0 to 100): 25
ragweed; 62 g ai/ha
  Ragweed plant response rating (0 to 100): 60
ragweed; 125 g ai/ha
  Plant response rating (scale of 0 to 100 where 0 is no effect and 100 is complete control): 60
ragweed; 250 g ai/ha
  Plant response rating (scale of 0 to 100 where 0 is no effect and 100 is complete control): 85

## COc1nc(-c2ccc(C(F)(F)F)cc2)nn1Cc1ccnc(C(F)(F)F)c1 [Compound 25]
galium; 31 g ai/ha
  Plant response rating, Galium: 60
galium; 125 g ai/ha
  Plant response rating, Galium: 80
ryegrass, Italian; 31 g ai/ha
  Plant response rating, Ryegrass, Italian: 0
ryegrass, Italian; 125 g ai/ha
  Plant response rating, Ryegrass, Italian: 50

## CCOc1nc(-c2ccc(Cl)cc2)nn1Cc1ccnc(C(F)(F)F)c1 [Compound 26]
galium; 31 g ai/ha
  Plant response rating, Galium: 60
galium; 125 g ai/ha
  Plant response rating, Galium: 90
ryegrass, Italian; 31 g ai/ha
  Plant response rating, Ryegrass, Italian: 40
ryegrass, Italian; 125 g ai/ha
  Plant response rating, Ryegrass, Italian: 100

## COc1nc(-c2ccccc2)nn1Cc1ccnc(C(F)(F)F)c1 [Compound 32]
johnsongrass; 125 g ai/ha
  Plant response rating (scale of 0 to 100 where 0 is no effect and 100 is complete control): 30
johnsongrass; 250 g ai/ha
  Plant response rating (scale of 0 to 100 where 0 is no effect and 100 is complete control): 60
johnsongrass; 31 g ai/ha
  Johnsongrass plant response rating (0 to 100): 0
johnsongrass; 62 g ai/ha
  Johnsongrass plant response rating (0 to 100): 0
galium; 125 g ai/ha
  Plant response rating, Galium: 60
galium; 500 g ai/ha
  Plant response rating, Galium: 90
ryegrass, Italian; 125 g ai/ha
  Plant response rating, Ryegrass, Italian: 40
ryegrass, Italian; 500 g ai/ha
  Plant response rating, Ryegrass, Italian: 60
ragweed; 31 g ai/ha
  Ragweed plant response rating (0 to 100): 0
ragweed; 62 g ai/ha
  Ragweed plant response rating (0 to 100): 5
ragweed; 125 g ai/ha
  Plant response rating (scale of 0 to 100 where 0 is no effect and 100 is complete control): 10
ragweed; 250 g ai/ha
  Plant response rating (scale of 0 to 100 where 0 is no effect and 100 is complete control): 65

## CCCOc1nc(-c2ccccc2)nn1Cc1ccnc(C(F)(F)F)c1 [Compound 33]
galium; 125 g ai/ha
  Plant response rating, Galium: 70
galium; 500 g ai/ha
  Plant response rating, Galium: 80
ryegrass, Italian; 125 g ai/ha
  Plant response rating, Ryegrass, Italian: 30
ryegrass, Italian; 500 g ai/ha
  Plant response rating, Ryegrass, Italian: 60
